Laboratory results reported in patent EP2766361B1, “8-CARBAMOYL-2-(2,3-DISUBSTITUTED PYRID-6-YL)-1,2,3,4-TETRAHYDROISOQUINOLINE DERIVATIVES AS APOPTOSIS-INDUCING AGENTS FOR THE TREATMENT OF CANCER AND IMMUNE AND AUTOIMMUNE DISEASES” (priority 2011, dated 2013).

The compounds below were run on mouse FL5.12 cells transfected with Bcl-xL (assay: FL5.12 cellular assay (cell viability, CellTiter-Glo)). Conditions: IL-3-depleted, 3% FBS assay media, 24 hours, read-out: FL5.12 Bcl-xL, -IL3, EC50.
Format: cell-based
Procedure: Cell viability was assayed using the CellTiter-Glo assay (Promega Corp., Madison, WI) according to the manufacturer instructions. Individual determinations were the result of duplicate values. […] Table 2. In Vitro Data

Compared with `[2H]C1([2H])c2c(cccc2C(=O)Nc2nc3ccccc3s2)CCN1c1ccc(-c2cnn(CC34CC5CC(CC(C5)C3)C4)c2C)c(C(=O)O)n1` [Example 44, 6-[8-(1,3-benzothiazol-2-ylcarbamoyl)-1,1-dideutero-3,4-dihydroisoquinolin-2(1H)-yl]-3-[5-methyl-1-(tricyclo[3.3.1.1^3,7]dec-1-ylmethyl)-1H-pyrazol-4-yl]pyridine-2-carboxylic acid], `Cc1c(-c2ccc(N3CCc4cccc(C(=O)Nc5nc6ccccc6s5)c4C3)nc2C(=O)O)nnn1CC12CC3CC(CC(C3)C1)C2` [Example 57, 6-[8-(1,3-benzothiazol-2-ylcarbamoyl)-3,4-dihydroisoquinolin-2(1H)-yl]-3-[5-methyl-1-(tricyclo[3.3.1.1^3,7]dec-1-ylmethyl)-1H-1,2,3-triazol-4-yl]pyridine-2-carboxylic acid] is 40-fold higher in EC50: 0.3 nM for the first, 12 nM for the second.

Compared with `N#Cc1c(NC23CC4CC(CC(C4)C2)C3)cccc1-c1ccc(N2CCc3cccc(C(=O)Nc4nc5ccccc5s4)c3C2)nc1C(=O)O` [Example 47, 6-[8-(1,3-benzothiazol-2-ylcarbamoyl)-3,4-dihydroisoquinolin-2(1H)-yl]-3-{2-cyano-3-[tricyclo[3.3.1.1^3,7]dec-1-ylamino]phenyl}pyridine-2-carboxylic acid], `N#Cc1c(SC23CC4CC(CC(C4)C2)C3)cccc1-c1ccc(N2CCc3cccc(C(=O)Nc4nc5ccccc5s4)c3C2)nc1C(=O)O` [Example 48, 6-[8-(1,3-benzothiazol-2-ylcarbamoyl)-3,4-dihydroisoquinolin-2(1H)-yl]-3-{2-cyano-3-[tricyclo[3.3.1.1^3,7]dec-1-ylsulfanyl]phenyl}pyridine-2-carboxylic acid] is 6.8-fold lower in EC50: 54 nM for the first, 8 nM for the second.

`Cc1c(NC(=O)C23CC4CC(CC(C4)C2)C3)cccc1-c1ccc(N2CCc3cccc(C(=O)Nc4nc5ccccc5s4)c3C2)nc1C(=O)O` [Example 50, 6-[8-(1,3-benzothiazol-2-ylcarbamoyl)-3,4-dihydroisoquinolin-2(1H)-yl]-3-(2-methyl-3-{[tricyclo[3.3.1.1^3,7]dec-1-ylcarbonyl]amino}phenyl)pyridine-2-carboxylic acid] and `Cc1c(C(=O)NC23CC4CC(CC(C4)C2)C3)cccc1-c1ccc(N2CCc3cccc(C(=O)Nc4nc5ccccc5s4)c3C2)nc1C(=O)O` [Example 54, 6-[8-(1,3-benzothiazol-2-ylcarbamoyl)-3,4-dihydroisoquinolin-2(1H)-yl]-3-{2-methyl-3-[tricyclo[3.3.1.1^3,7]dec-1-ylcarbamoyl]phenyl}pyridine-2-carboxylic acid] cannot be ordered by EC50: over 1000 nM for the first, over 1000 nM for the second.

First: Cc1c(-c2ccc(N3CCc4cccc(C(=O)Nc5nc6ccccc6s5)c4C3)nc2C(=O)O)cccc1S(=O)(=O)NC12CC3CC(CC(C3)C1)C2 [Example 51, 6-[8-(1,3-benzothiazol-2-ylcarbamoyl)-3,4-dihydroisoquinolin-2(1H)-yl]-3-{2-methyl-3-[tricyclo[3.3.1.1^3,7]dec-1-ylsulfamoyl]phenyl}pyridine-2-carboxylic acid]
Second: N#Cc1c(-c2ccc(N3CCc4cccc(C(=O)Nc5nc6ccccc6s5)c4C3)nc2C(=O)O)cccc1S(=O)(=O)C12CC3CC(CC(C3)C1)C2 [Example 60, 6-[8-(1,3-benzothiazol-2-ylcarbamoyl)-3,4-dihydroisoquinolin-2(1H)-yl]-3-[2-cyano-3-(tricyclo[3.3.1.1^3,7]dec-1-ylsulfonyl)phenyl]pyridine-2-carboxylic acid]
The EC50 of the first is 3-fold higher: 164 nM for the first, 55 nM for the second.

`Cc1c(-c2ccc(N3CCc4cccc(C(=O)Nc5nc6ccccc6s5)c4C3)nc2C(=O)O)cnn1CC12CC3CC(C1)CC(OCC1CCOCC1)(C3)C2` [Example 53, 6-[8-(1,3-benzothiazol-2-ylcarbamoyl)-3,4-dihydroisoquinolin-2(1H)-yl]-3-(5-methyl-1-{[3-(tetrahydro-2H-pyran-4-ylmethoxy)tricyclo[3.3.1.1^3,7]dec-1-yl]methyl}-1H-pyrazol-4-yl)pyridine-2-carboxylic acid] and `COCCOCCOC12CC3CC(CC(Cn4ncc(-c5ccc(N6CCc7cccc(C(=O)Nc8nc9ccccc9s8)c7C6)nc5C(=O)O)c4C)(C3)C1)C2` [Example 63, 6-[8-(1,3-benzothiazol-2-ylcarbamoyl)-3,4-dihydroisoquinolin-2(1H)-yl]-3-[1-({3-[2-(2-methoxyethoxy)ethoxy]tricyclo[3.3.1.1^3,7]dec-1-yl}methyl)-5-methyl-1H-pyrazol-4-yl]pyridine-2-carboxylic acid] are within 1.5-fold of each other in EC50: 4 nM for the first, 3 nM for the second.

Compared with `Cc1c(-c2ccc(N3CCc4cccc(C(=O)Nc5nc6ccccc6s5)c4C3)nc2C(=O)O)cccc1N(C)CC12CC3CC(CC(C3)C1)C2` [Example 55, 6-[8-(1,3-benzothiazol-2-ylcarbamoyl)-3,4-dihydroisoquinolin-2(1H)-yl]-3-(2-methyl-3-{methyl[tricyclo[3.3.1.1^3,7]dec-1-ylmethyl]amino}phenyl)pyridine-2-carboxylic acid], `Cc1c(-c2ccc(N3CCc4cccc(C(=O)Nc5nc6ccccc6s5)c4C3)nc2C(=O)O)cccc1N(C)C(=O)C12CC3CC(CC(C3)O1)C2` [Example 68, 6-[8-(1,3-benzothiazol-2-ylcarbamoyl)-3,4-dihydroisoquinolin-2(1H)-yl]-3-{2-methyl-3-[methyl(2-oxatricyclo[3.3.1.1^3,7]dec-1-ylcarbonyl)amino]phenyl}pyridine-2-carboxylic acid] is 2.1-fold lower in EC50: 47 nM for the first, 22 nM for the second.

Going from `COCCC1(Cn2cc(-c3ccc(N4CCc5cccc(C(=O)Nc6nc7ccccc7s6)c5C4)nc3C(=O)O)cn2)C2CC3CC(C2)CC1C3` (centres unmarked) [Example 56, 6-[8-(1,3-benzothiazol-2-ylcarbamoyl)-3,4-dihydroisoquinolin-2(1H)-yl]-3-(1-{[2-(2-methoxyethyl)tricyclo[3.3.1.1^3,7]dec-2-yl]methyl}-1H-pyrazol-4-yl)pyridine-2-carboxylic acid] to `Cc1c(-c2ccc(N3CCc4cccc(C(=O)Nc5nc6ccccc6s5)c4C3)nc2C(=O)O)cnn1CC1C2CC3CC(C2)CC1C3` (centres unmarked) [Example 62, 6-[8-(1,3-benzothiazol-2-ylcarbamoyl)-3,4-dihydroisoquinolin-2(1H)-yl]-3-[5-methyl-1-(tricyclo[3.3.1.1^3,7]dec-2-ylmethyl)-1H-pyrazol-4-yl]pyridine-2-carboxylic acid], the EC50 falls from 17 nM to 0.8 nM (21-fold).

Going from `COC12CC3CC(CC(Cn4c(C#N)cc(-c5ccc(N6CCc7cccc(C(=O)Nc8nc9ccccc9s8)c7C6)nc5C(=O)O)c4C)(C3)C1)C2` [Example 58, 6-[8-(1,3-benzothiazol-2-ylcarbamoyl)-3,4-dihydroisoquinolin-2(1H)-yl]-3-(5-cyano-1-{[3-methoxytricyclo[3.3.1.1^3,7]dec-1-yl]methyl}-2-methyl-1H-pyrrol-3-yl)pyridine-2-carboxylic acid] to `Cc1c(-c2ccc(N3CCc4cccc(C(=O)Nc5nc6ccccc6s5)c4C3)nc2C(=O)O)cc(C#N)n1CC12CC3CC(CC(C3)O1)C2` [Example 71, 6-[8-(1,3-benzothiazol-2-ylcarbamoyl)-3,4-dihydroisoquinolin-2(1H)-yl]-3-[5-cyano-2-methyl-1-(2-oxatricyclo[3.3.1.1^3,7]dec-1-ylmethyl)-1H-pyrrol-3-yl]pyridine-2-carboxylic acid], the EC50 rises from 0.3 nM to 1 nM (3.3-fold). The first is the more potent here.

First: Cc1c(-c2ccc(N3CCc4cccc(C(=O)Nc5nc6ccccc6s5)c4C3)nc2C(=O)O)ccnc1N(C)C1CCCCCCC1 [Example 61, 6-[8-(1,3-benzothiazol-2-ylcarbamoyl)-3,4-dihydroisoquinolin-2(1H)-yl]-2'-[cyclooctyl(methyl)amino]-3'-methyl-3,4'-bipyridine-2-carboxylic acid]
Second: Cc1c(-c2ccc(N3CCc4cccc(C(=O)Nc5nc6ccccc6s5)c4C3)nc2C(=O)O)ccnc1S(=O)(=O)C12CC3CC(CC(C3)C1)C2 [Example 70, 6-[8-(1,3-benzothiazol-2-ylcarbamoyl)-3,4-dihydroisoquinolin-2(1H)-yl]-3'-methyl-2'-(tricyclo[3.3.1.1^3,7]dec-1-ylsulfonyl)-3,4'-bipyridine-2-carboxylic acid]
The EC50 of the first is 7.2-fold lower: 10 nM for the first, 72 nM for the second. The first is the more potent here.

Compared with `Cc1c(C(=O)N(C)C2C3CC4CC(C3)CC2C4)cccc1-c1ccc(N2CCc3cccc(C(=O)Nc4nc5ccccc5s4)c3C2)nc1C(=O)O` (centres unmarked) [Example 64], `Cc1c(-c2ccc(N3CCc4cccc(C(=O)Nc5nc6ccccc6s5)c4C3)nc2C(=O)O)cccc1S(=O)(=O)N(C)C1C2CC3CC(C2)CC1C3` (centres unmarked) [Example 69, 6-[8-(1,3-benzothiazol-2-ylcarbamoyl)-3,4-dihydroisoquinolin-2(1H)-yl]-3-(2-methyl-3-{methyl[tricyclo[3.3.1.1^3,7]dec-2-yl]sulfamoyl}phenyl)pyridine-2-carboxylic acid] is 17-fold higher in EC50: 26 nM for the first, 449 nM for the second.

Going from `Cc1c(-c2ccc(N3CCc4cccc(C(=O)Nc5nc6ccccc6s5)c4C3)nc2C(=O)O)cnn1CC1(OCCS(C)(=O)=O)CCCCCCC1` [Example 65, 6-[8-(1,3-benzothiazol-2-ylcarbamoyl)-3,4-dihydroisoquinolin-2(1H)-yl]-3-[5-methyl-1-({1-[2-(methylsulfonyl)ethoxy]cyclooctyl}methyl)-1H-pyrazol-4-yl]pyridine-2-carboxylic acid] to `Cc1c(-c2ccc(N3CCc4cccc(C(=O)Nc5nc6cccnc6s5)c4C3)nc2C(=O)O)cnn1CC12CC3CC(CC(C3)O1)C2` [Example 67, 3-[5-methyl-1-(2-oxatricyclo[3.3.1.1^3,7]dec-1-ylmethyl)-1H-pyrazol-4-yl]-6-[8-([1,3]thiazolo[5,4-b]pyridin-2-ylcarbamoyl)-3,4-dihydroisoquinolin-2(1H)-yl]pyridine-2-carboxylic acid], the EC50 rises from 1 nM to 9 nM (9-fold).

`Cc1c(-c2ccc(N3CCc4cccc(C(=O)Nc5nc6ccccc6s5)c4C3)nc2C(=O)O)nnn1CC12CC3CC(CC(C3)O1)C2` [Example 66, 6-[8-(1,3-benzothiazol-2-ylcarbamoyl)-3,4-dihydroisoquinolin-2(1H)-yl]-3-[5-methyl-1-(2-oxatricyclo[3.3.1.1^3,7]dec-1-ylmethyl)-1H-1,2,3-triazol-4-yl]pyridine-2-carboxylic acid] was tested, and the EC50 was 26 nM.
